The source of these data is patent US20210251910A1, “FUMARIC ACID COMPOSITIONS WITH INCREASED BIOAVAILABILITY AND REDUCED SIDE EFFECTS” (Vitalis LLC, priority 2018, published 2021).

A short description of data set [1]: Example 2: comparative bioavailability, monomethyl fumarate plasma pharmacokinetics. It counts as in vivo, human. Particulars: normalized to 180 mg DMF.
Experimental: The delayed-release capsules were placed on the subject's tongue. Subjects were instructed to suck the delayed-release capsule until the acetylsalicylic acid coating was dissolved or up to a maximum of 1 minute after the delayed-release capsule had been placed on the subject's tongue. The delayed-release capsule should not be chewed, bitten, or swallowed during that 1-minute period or until the coating is dissolved; only the saliva could be swallowed. The subject was instructed to give a hand sign once the acetylsalicylic acid coating was dissolved (the capsule should feel and taste different). […]
For data set [2] the following is noted: pretreatment with 325 mg aspirin for 4 days; Sheikh et al., Clin Ther. 2013; cited from earlier work.
Data set [3] in a line: Example 1: flush rating (Global Flush Severity Scale) after DMF without aspirin, with swallowed aspirin or with intraoral aspirin. As to conditions: MS patients. It is filed as in vivo, human. The protocol: Seven human patients with multiple sclerosis who were already taking dimethyl fumarate and had experienced flushing side effects from dimethyl fumarate were recruited for this study. […] In Period I, each patient was given their standard dose of 240 mg dimethyl fumarate orally. Each patient was asked to rate his or her flush on the Global Flush Severity Scale (GFSS) (see Paolini et al. Int. J. Clin. Pract. 62(6):896-904 (2008)), when the flush completely resolved. The Global Flushing Severity Score measures, overall, in the previous 24 hours, how each patient rates the flushing symptoms, including redness, warmth, tingling, and itchiness of the skin. […] After the flush completely resolved, then each patient recorded his or her GFSS flush rating. Not until at least two days later did Period III start. At Period III, each patient was asked to not swallow the orally administered aspirin (162 mg) but to allow the aspirin to be absorbed through the oral mucosa. The aspirin was in powdered form and the remaining aspirin in the mouth was washed out with water. Afterwards, 240 mg of dimethyl fumarate was swallowed with a glass of water. Still, the flush was rated (GFSS) after it was resolved.

Data set [4] in a line: Example 2: flushing assessment in crossover study, VTS-72 vs Tecfidera. It is filed as in vivo, human. Particulars: Example 2 conclusion, co-administration of aspirin. The protocol:
This was a single center, pilot, comparative bioavailability, open-label, randomized, single-dose, 2-period, 2-sequence, crossover study under fasting conditions. A total of 12 healthy adult male or female volunteers were included in this pilot study. For each period, subjects were confined from at least 10 hours before dosing until 12 hours post-dose. There was a washout of 7 days or more between doses. The washout period could be increased for logistical considerations. Participation of each subject in this study lasted approximately 9 days. Subjects were administered each treatment according to the 2-period, 2-sequence, block randomization scheme.
Treatment A: Subjects were required not to wear dentures or to remove their tongue piercing at the time of dosing. The delayed-release capsules were placed on the subject's tongue. Subjects were instructed to suck the delayed-release capsule until the acetylsalicylic acid coating was dissolved or up to a maximum of 1 minute after the delayed-release capsule had been placed on the subject's tongue. […]
Flushing (including redness, warmth, tingling, and itchiness of the skin) was assessed at 0.5, 1, 1.5, 2, 2.5, 3, 3.5, and 4 hours post-dose using the question and the rating scale presented in Section—Flushing Assessment below. […] Flushing symptoms were recorded as adverse events.
Flushing was assessed using the question below. […]

Data set [5] in a line: Example 3: flushing side effect, VTS-72 (205 mg DMF) vs Tecfidera. It counts as in vivo, human. Particulars: Example 3, co-administration of aspirin. Here is the method: Flushing (including redness, warmth, tingling, and itchiness of the skin) was assessed at 0.5, 1, 1.5, 2, 2.5, 3, 3.5, and 4 hours post-dose using the question and the rating scale presented in Section—Flushing Assessment below. Half grades were not assigned. Flushing symptoms were recorded as adverse events.
Flushing was assessed using the question below. The question was asked by the clinical staff: • Question 1: Overall, at this moment, how would you rate your flushing symptoms (including redness, warmth, tingling, and itchiness of the skin)? Score from 0 to 10 (none 0, mild 1 to 3, moderate 4 to 6, severe 7 to 9, extreme 10).
16 healthy individuals were enrolled for this study.

On to `CC(=O)Oc1ccccc1C(=O)O` [aspirin, acetylsalicylic acid], for which the “impact of co-administration of aspirin on the Cmax of DMF” value in data set [1] is “did not have significant impact”. Moreover, the “effect of aspirin pretreatment on the pharmacokinetic profile of DMF” value in data set [2] is listed as “did not affect”. For the same compound, the “reduction of severity of flush (GFSS) as compared to Period I” value in data set [3] (Period II: 162 mg aspirin orally swallowed followed by 240 mg dimethyl fumarate) was 33%; in data set [3] (Period III: 162 mg aspirin absorbed through the oral mucosa, then 240 mg dimethyl fumarate), 52%. Besides, the “reduction of the flushing side effect” value in data set [4] is “more than 35%”; in data set [5] it was “about 61%”.
